Reference: PMC5218480 (PLoS ONE, 2017)

Test system: MV-4-11 cells
Experiment: Gene expression microarray analysis (Affymetrix PrimeView) and GSEA
Type: cell-based, human
Set-up: RFU PODN (11730768_x_at) / Fold change /veh PODN (11730768_x_at) / RFU LINC00158 (11744669_a_at) / Fold change /veh LINC00158 (11744669_a_at) / RFU DUSP10 (11751237_a_at) / Fold change /veh DUSP10 (11751237_a_at) / RFU ID3 (11757404_x_at) / Fold change /veh ID3 (11757404_x_at) / RFU PLEKHG5 (11737974_s_at) / Fold change /veh PLEKHG5 (11737974_s_at) / RFU LRRC4B (11730491_at) / Fold change /veh LRRC4B (11730491_at) / RFU GIMAP4 (11747438_a_at) / Fold change /veh GIMAP4 (11747438_a_at) / RFU KRT8 (11758183_x_at) / Fold change /veh KRT8 (11758183_x_at) / RFU CNN1 (11734310_a_at) / Fold change /veh CNN1 (11734310_a_at) / RFU VPS37D (11726825_at) / Fold change /veh VPS37D (11726825_at) / RFU C10orf10 (11716522_x_at) / Fold change /veh C10orf10 (11716522_x_at) / RFU KIR2DL2 /// KIR2DL4 /// KIR2DL5A /// KIR2DL5B /// KIR2DS1 /// KIR2DS2 /// KIR2DS3 /// KIR2DS4 /// KIR3DL3 /// KIR3DL3 /// KIR3DS1 (11738374_at) / Fold change /veh KIR2DL2 /// KIR2DL4 /// KIR2DL5A /// KIR2DL5B /// KIR2DS1 /// KIR2DS2 /// KIR2DS3 /// KIR2DS4 /// KIR3DL3 /// KIR3DL3 /// KIR3DS1 (11738374_at) / RFU C1QL1 (11718748_at) / Fold change /veh C1QL1 (11718748_at) / RFU TMPRSS4 (11747572_a_at) / Fold change /veh TMPRSS4 (11747572_a_at) / RFU HAMP (11756126_x_at) / Fold change /veh HAMP (11756126_x_at) / RFU RNFT2 (11725882_a_at) / Fold change /veh RNFT2 (11725882_a_at) / RFU NR4A2 (11747474_a_at) / Fold change /veh NR4A2 (11747474_a_at) / RFU ABCC12 (11746883_a_at) / Fold change /veh ABCC12 (11746883_a_at) / RFU TMEM136 (11760407_x_at) / Fold change /veh TMEM136 (11760407_x_at) / RFU CLDN22 /// WWC2 (11732394_at) / Fold change /veh CLDN22 /// WWC2 (11732394_at) / RFU HLA-DPB1 (11760878_x_at) / Fold change /veh HLA-DPB1 (11760878_x_at) / RFU SPINT1 (11716480_a_at) / Fold change /veh SPINT1 (11716480_a_at) / RFU GAP43 (11754022_s_at) / Fold change /veh GAP43 (11754022_s_at) / RFU A4GNT (11735810_at) / Fold change /veh A4GNT (11735810_at) / RFU PRB3 (11715151_x_at) / Fold change /veh PRB3 (11715151_x_at) / RFU TUBB4B (11761932_at) / Fold change /veh TUBB4B (11761932_at) / RFU CAPN14 (11732068_a_at) / Fold change /veh CAPN14 (11732068_a_at) / RFU TMCC2 (11721928_a_at) / Fold change /veh TMCC2 (11721928_a_at) / RFU IRGQ (11745062_a_at) / Fold change /veh IRGQ (11745062_a_at) / RFU FAM174B (11720279_a_at) / Fold change /veh FAM174B (11720279_a_at) / RFU TMPRSS4 (11748680_a_at) / Fold change /veh TMPRSS4 (11748680_a_at) / RFU FAM212B (11763350_a_at) / Fold change /veh FAM212B (11763350_a_at) / RFU PLEKHG5 (11743358_a_at) / Fold change /veh PLEKHG5 (11743358_a_at) / RFU ZSCAN30 (11745921_a_at) / Fold change /veh ZSCAN30 (11745921_a_at) / RFU CMKLR1 (11741424_a_at) / Fold change /veh CMKLR1 (11741424_a_at) / RFU LOC101060620 /// MAPK8IP1 (11723275_at) / Fold change /veh LOC101060620 /// MAPK8IP1 (11723275_at) / RFU SPTSSB (11747773_x_at) / Fold change /veh SPTSSB (11747773_x_at) / RFU PRSS12 (11739890_at) / Fold change /veh PRSS12 (11739890_at) / RFU BIN1 (11741810_x_at) / Fold change /veh BIN1 (11741810_x_at) / RFU WNT11 (11732464_a_at) / Fold change /veh WNT11 (11732464_a_at) / RFU C10orf10 (11716521_a_at) / Fold change /veh C10orf10 (11716521_a_at) / RFU C5orf56 (11738089_at) / Fold change /veh C5orf56 (11738089_at) / RFU CYB561 (11721691_x_at) / Fold change /veh CYB561 (11721691_x_at) / RFU ANKRD19P (11752326_a_at) / Fold change /veh ANKRD19P (11752326_a_at) / RFU OR2T12 /// OR2T33 /// OR2T8 (11738714_s_at) / Fold change /veh OR2T12 /// OR2T33 /// OR2T8 (11738714_s_at) / RFU VCAN (11748164_a_at) / Fold change /veh VCAN (11748164_a_at) / RFU JSRP1 (11732532_at) / Fold change /veh JSRP1 (11732532_at) / RFU KRTAP10-11 (11738290_x_at) / Fold change /veh KRTAP10-11 (11738290_x_at) / RFU MYO3A (11730013_a_at) / Fold change /veh MYO3A (11730013_a_at) / RFU EBF3 (11725865_a_at) / Fold change /veh EBF3 (11725865_a_at) / RFU CAMK2N1 (11719241_x_at) / Fold change /veh CAMK2N1 (11719241_x_at) / RFU C5orf56 (11738088_a_at) / Fold change /veh C5orf56 (11738088_a_at) / RFU OLFML3 (11715873_a_at) / Fold change /veh OLFML3 (11715873_a_at) / RFU LOC100653217 /// NTM (11731650_a_at) / Fold change /veh LOC100653217 /// NTM (11731650_a_at) / RFU MAPK11 (11762145_a_at) / Fold change /veh MAPK11 (11762145_a_at) / RFU FIZ1 (11724087_x_at) / Fold change /veh FIZ1 (11724087_x_at) / RFU OASL (11726364_x_at) / Fold change /veh OASL (11726364_x_at) / RFU SOX15 (11748057_x_at) / Fold change /veh SOX15 (11748057_x_at) / RFU CD79A (11719716_a_at) / Fold change /veh CD79A (11719716_a_at) / RFU HIST1H1D (11736915_at) / Fold change /veh HIST1H1D (11736915_at) / RFU CASKIN2 (11723855_a_at) / Fold change /veh CASKIN2 (11723855_a_at) / RFU LOC730098 (11760151_x_at) / Fold change /veh LOC730098 (11760151_x_at) / RFU OR4N2 (11742367_at) / Fold change /veh OR4N2 (11742367_at) / RFU PRRT2 (11749266_a_at) / Fold change /veh PRRT2 (11749266_a_at) / RFU SNX32 (11753110_a_at) / Fold change /veh SNX32 (11753110_a_at) / RFU CDHR5 (11726645_a_at) / Fold change /veh CDHR5 (11726645_a_at) / RFU RCAN1 (11760418_a_at) / Fold change /veh RCAN1 (11760418_a_at) / RFU FAM167A (11723789_a_at) / Fold change /veh FAM167A (11723789_a_at) / RFU FAM26E (11764081_at) / Fold change /veh FAM26E (11764081_at) / RFU ISYNA1 (11749810_s_at) / Fold change /veh ISYNA1 (11749810_s_at) / RFU ACY1 (11761880_at) / Fold change /veh ACY1 (11761880_at) / RFU 11764098_at / Fold change /veh 11764098_at / RFU SAMD14 (11745864_x_at) / Fold change /veh SAMD14 (11745864_x_at) / RFU NPB (11741838_a_at) / Fold change /veh NPB (11741838_a_at) / RFU TMPRSS6 (11731388_a_at) / Fold change /veh TMPRSS6 (11731388_a_at) / RFU KRTAP10-2 (11738614_at) / Fold change /veh KRTAP10-2 (11738614_at) / RFU ARHGAP8 /// PRR5-ARHGAP8 (11727945_x_at) / Fold change /veh ARHGAP8 /// PRR5-ARHGAP8 (11727945_x_at) / RFU KRTAP5-7 /// NADSYN1 (11734609_at) / Fold change /veh KRTAP5-7 /// NADSYN1 (11734609_at) / RFU RASL12 (11751679_a_at) / Fold change /veh RASL12 (11751679_a_at) / RFU CDKN2B (11736163_a_at) / Fold change /veh CDKN2B (11736163_a_at) / RFU PRF1 (11729649_at) / Fold change /veh PRF1 (11729649_at) / RFU, ZNF638 /// ZNF638-IT1 / Fold change vs veh, ZNF638 /// ZNF638-IT1 / RFU, PANK3 / Fold change vs veh, PANK3 / RFU, SH3YL1 / Fold change vs veh, SH3YL1 / RFU, ZEB2 / Fold change vs veh, ZEB2 / RFU, NRIP1 / Fold change vs veh, NRIP1 / RFU, PTTG1IP / Fold change vs veh, PTTG1IP / RFU, CAPN2 / Fold change vs veh, CAPN2 / RFU, MED14 / Fold change vs veh, MED14 / RFU, SNORA58 / Fold change vs veh, SNORA58 / RFU, C1orf63 / Fold change vs veh, C1orf63 / RFU, LRRFIP1 / Fold change vs veh, LRRFIP1 / RFU, NDUFAF7 / Fold change vs veh, NDUFAF7 / RFU, SLC12A2 / Fold change vs veh, SLC12A2 / RFU, IBTK / Fold change vs veh, IBTK / RFU, ESF1 / Fold change vs veh, ESF1 / Fold change vs veh, TMEM50B / RFU, TAOK1 / Fold change vs veh, TAOK1 / RFU, ACBD3 / Fold change vs veh, ACBD3 / RFU, TMA16 / Fold change vs veh, TMA16 / RFU, RWDD3 / Fold change vs veh, RWDD3 / RFU, BCAT1 / Fold change vs veh, BCAT1 / RFU, EDEM3 / Fold change vs veh, EDEM3 / RFU, TMEM33 / Fold change vs veh, TMEM33 / RFU, WDR75 / Fold change vs veh, WDR75 / RFU, AHCTF1 / Fold change vs veh, AHCTF1 / RFU, TFRC / Fold change vs veh, TFRC / RFU, ZDHHC17 / Fold change vs veh, ZDHHC17 / RFU, NOM1 / Fold change vs veh, NOM1 / RFU, ARL8B / Fold change vs veh, ARL8B / RFU, ZBTB11 / Fold change vs veh, ZBTB11 / RFU, TAMM41 / Fold change vs veh, TAMM41 / RFU, KIAA1704 /// LOC100996395 / Fold change vs veh, KIAA1704 /// LOC100996395 / RFU, ING1 / Fold change vs veh, ING1 / RFU, TRMT61B / Fold change vs veh, TRMT61B / RFU, FUBP3 / Fold change vs veh, FUBP3 / RFU, TP53 / Fold change vs veh, TP53 / RFU, TNKS2 / Fold change vs veh, TNKS2 / RFU, ZFP14 / Fold change vs veh, ZFP14 / RFU, ACTR2 / Fold change vs veh, ACTR2 / RFU, PPP3R1 / Fold change vs veh, PPP3R1 / RFU, PIK3R1 / Fold change vs veh, PIK3R1 / RFU, HNRNPA1 / Fold change vs veh, HNRNPA1 / RFU, RNF170 / Fold change vs veh, RNF170 / RFU, ZNF28 / Fold change vs veh, ZNF28 / RFU, RNGTT / Fold change vs veh, RNGTT / RFU, OGT / Fold change vs veh, OGT / RFU, BRD1 / Fold change vs veh, BRD1 / RFU, MARS / Fold change vs veh, MARS / RFU, ZNF655 / Fold change vs veh, ZNF655 / RFU, FAHD1 / Fold change vs veh, FAHD1 / RFU, BDP1 / Fold change vs veh, BDP1 / RFU, LRRCC1 / Fold change vs veh, LRRCC1 / RFU, ARID1A / Fold change vs veh, ARID1A / RFU, ZNF146 / Fold change vs veh, ZNF146 / RFU, ZNF330 / Fold change vs veh, ZNF330 / RFU, GPN3 / Fold change vs veh, GPN3 / RFU, C9orf123 / Fold change vs veh, C9orf123 / RFU, N4BP2L2 / Fold change vs veh, N4BP2L2 / RFU, ARFIP1 / Fold change vs veh, ARFIP1 / RFU, FAM179B / Fold change vs veh, FAM179B / RFU, BCL10 / Fold change vs veh, BCL10 / RFU, UHRF1BP1L / Fold change vs veh, UHRF1BP1L / RFU, BET1 / Fold change vs veh, BET1 / RFU, CNOT2 / Fold change vs veh, CNOT2 / RFU, ZNF268 / Fold change vs veh, ZNF268 / Fold change vs veh, ZNF507 / RFU, DGCR2 / Fold change vs veh, DGCR2 / RFU, WDSUB1 / Fold change vs veh, WDSUB1 / Fold change vs veh, HSP90B1 /// MIR3652 / RFU, ADSS / Fold change vs veh, ADSS / RFU, GK / Fold change vs veh, GK / RFU, ZNF148 / Fold change vs veh, ZNF148 / RFU, TAF9 / Fold change vs veh, TAF9 / RFU, SLC1A5 / Fold change vs veh, SLC1A5 / RFU, SLMO2 / Fold change vs veh, SLMO2 / RFU, ABCC4 / Fold change vs veh, ABCC4 / RFU, LOC101060439 /// RAP1B / Fold change vs veh, LOC101060439 /// RAP1B / RFU, RFX7 / Fold change vs veh, RFX7 / RFU, GTPBP10 / Fold change vs veh, GTPBP10 / RFU, CNEP1R1 / Fold change vs veh, CNEP1R1 / RFU, BIVM-ERCC5 /// ERCC5 / Fold change vs veh, BIVM-ERCC5 /// ERCC5 / RFU, ILF3 / Fold change vs veh, ILF3 / RFU 11762660_at / Fold change /veh 11762660_at / RFU VCAN (11757783_s_at) / Fold change /veh VCAN (11757783_s_at) / RFU DDX43 (11728927_at) / Fold change /veh DDX43 (11728927_at) / RFU KRT8 (11758188_x_at) / Fold change /veh KRT8 (11758188_x_at) / RFU NKD1 (11759106_at) / Fold change /veh NKD1 (11759106_at) / RFU SRD5A1 (11742802_a_at) / Fold change /veh SRD5A1 (11742802_a_at) / RFU TPSAB1 /// TPSB2 (11721975_s_at) / Fold change /veh TPSAB1 /// TPSB2 (11721975_s_at) / RFU GSTM3 (11746129_a_at) / Fold change /veh GSTM3 (11746129_a_at) / RFU IL23R (11737362_x_at) / Fold change /veh IL23R (11737362_x_at) / RFU TMEM51 (11727254_a_at) / Fold change /veh TMEM51 (11727254_a_at) / RFU PIWIL2 (11732686_x_at) / Fold change /veh PIWIL2 (11732686_x_at) / RFU ORM1 (11744905_x_at) / Fold change /veh ORM1 (11744905_x_at) / RFU CCDC152 (11743942_at) / Fold change /veh CCDC152 (11743942_at) / RFU ECM1 (11717891_a_at) / Fold change /veh ECM1 (11717891_a_at) / RFU IL23R (11748794_a_at) / Fold change /veh IL23R (11748794_a_at) / RFU TNFAIP8L3 (11732012_x_at) / Fold change /veh TNFAIP8L3 (11732012_x_at) / RFU MBOAT4 (11741988_at) / Fold change /veh MBOAT4 (11741988_at) / RFU 11764193_at / Fold change /veh 11764193_at / RFU TMEM53 (11763286_at) / Fold change /veh TMEM53 (11763286_at) / RFU MAGEB2 (11727129_at) / Fold change /veh MAGEB2 (11727129_at) / RFU TMEM200A (11744735_a_at) / Fold change /veh TMEM200A (11744735_a_at) / RFU CCDC152 (11751479_a_at) / Fold change /veh CCDC152 (11751479_a_at) / RFU FAM211A (11726209_a_at) / Fold change /veh FAM211A (11726209_a_at) / RFU RGS16 (11746705_a_at) / Fold change /veh RGS16 (11746705_a_at) / RFU VCAN (11755009_s_at) / Fold change /veh VCAN (11755009_s_at) / RFU RHOB (11743442_s_at) / Fold change /veh RHOB (11743442_s_at) / RFU RGS16 (11720943_a_at) / Fold change /veh RGS16 (11720943_a_at) / RFU RGS16 (11720944_at) / Fold change /veh RGS16 (11720944_at) / RFU, VPS4B / Fold change vs veh, VPS4B / RFU, CREB1 / Fold change vs veh, CREB1 / RFU, DNAJC13 / Fold change vs veh, DNAJC13 / RFU, GNAQ / Fold change vs veh, GNAQ / RFU, CDK5R1 / Fold change vs veh, CDK5R1 / RFU, ZRANB3 / Fold change vs veh, ZRANB3 / RFU, CUL4A / Fold change vs veh, CUL4A / RFU, CCNY / Fold change vs veh, CCNY / RFU, UFL1 / Fold change vs veh, UFL1 / RFU, COG3 / Fold change vs veh, COG3 / RFU, DIAPH2 / Fold change vs veh, DIAPH2 / RFU, SKA2 / Fold change vs veh, SKA2 / RFU, AFF3 / Fold change vs veh, AFF3 / RFU, LMF1 / Fold change vs veh, LMF1 / RFU, IPO11 / Fold change vs veh, IPO11 / RFU, DFFB / Fold change vs veh, DFFB / RFU, FOXP1 / Fold change vs veh, FOXP1 / RFU, CARD8 / Fold change vs veh, CARD8 / RFU, STRN3 / Fold change vs veh, STRN3 / RFU, ADK / Fold change vs veh, ADK / RFU, RASSF2 / Fold change vs veh, RASSF2 / RFU, WIPF1 / Fold change vs veh, WIPF1 / RFU, LARP1B / Fold change vs veh, LARP1B / RFU, RASA1 / Fold change vs veh, RASA1 / RFU, RB1 / Fold change vs veh, RB1 / RFU, PPFIA1 / Fold change vs veh, PPFIA1 / RFU, MAT2A / Fold change vs veh, MAT2A / RFU, CCT5 / Fold change vs veh, CCT5 / RFU, WDR92 / Fold change vs veh, WDR92 / RFU, CUX1 / Fold change vs veh, CUX1 / RFU, TTC7A / Fold change vs veh, TTC7A / RFU, TMEM135 / Fold change vs veh, TMEM135 / RFU, DEPTOR / Fold change vs veh, DEPTOR / RFU, CPM / Fold change vs veh, CPM / RFU, DNAJB6 / Fold change vs veh, DNAJB6 / RFU, CACNA2D3 / Fold change vs veh, CACNA2D3 / RFU, DTX4 / Fold change vs veh, DTX4 / RFU, TFCP2 / Fold change vs veh, TFCP2 / RFU, GMCL1 /// GMCL1P1 / Fold change vs veh, GMCL1 /// GMCL1P1 / RFU, AEBP2 / Fold change vs veh, AEBP2 / RFU, SNHG1 /// SNORD22 /// SNORD25 /// SNORD26 /// SNORD27 /// SNORD28 /// SNORD29 /// SNORD31 / Fold change vs veh, SNHG1 /// SNORD22 /// SNORD25 /// SNORD26 /// SNORD27 /// SNORD28 /// SNORD29 /// SNORD31 / Fold change (Aza/veh), C12orf56 (ProbeSet 11735607_a_at) / Fold change (ACY-1035/veh), C12orf56 (ProbeSet 11735607_a_at) / Fold change (Aza/veh), FGFR1OP (ProbeSet 11751329_s_at) / Fold change (ACY-1035/veh), FGFR1OP (ProbeSet 11751329_s_at) / Fold change (Aza/veh), VPS36 (ProbeSet 11739960_a_at) / Fold change (ACY-1035/veh), VPS36 (ProbeSet 11739960_a_at) / RFU SYPL1 (11715823_x_at) / Fold change /veh SYPL1 (11715823_x_at) / RFU IGFBP7 (11715501_s_at) / Fold change /veh IGFBP7 (11715501_s_at) / RFU REEP3 (11722064_at) / Fold change /veh REEP3 (11722064_at) / RFU IGLL1 (11728026_x_at) / Fold change /veh IGLL1 (11728026_x_at): dose or concentration left out as unconfirmed
Details: ProbeSet 11716844_s_at; LIST D

With `Nc1ccc(-c2cccs2)cc1NC(=O)c1ccc2c(c1)cc(C1CC1)n2CCN1CCOCC1` [ACY-1035] the “Fold change vs veh, DNAJC13” value was 0.91.
